# Measured values: US6335347B1, “Ethyl 4-(8-chloro-5,6-dihydro-11 H-benzo[5,6]cyclohepta[1,2-b]pyridin-11-ylidene)-1-piperidene carboxylate polymorph” (Schering Corporation, priority 1997, dated 2002)
# Tested on: monkey model
# Experiment: Antihistaminic activity in a monkey model
smiles,measurement,value
"CCOC(=O)N1CCC(=C2c3ccc(Cl)cc3CCc3cccnc32)CC1 [polymorph form 2 loratadine, ethyl 4-(8-chloro-5,6,-dihydro-11H-benzo[5,6]cyclohepta[1,2-b]pyridin-11-ylidene)-1-piperidene carboxylate]",Antihistaminic activity,demonstrated
